The record followed here is EP1790349A1.

The subject of one assay is Klebsiela. To be noted: disc 6: NaCl 400 mg/mL (control).
In the next assay the test system is Streptococcus aureus. To be noted: disc 6: NaCl 400 mg/mL (control).
Another assay deals with Shigella flexneri. Conditions: disc 6: NaCl 400 mg/mL (control).
The test system of a further assay is Shigella dysenteriae. The format is cell-based. To be noted: disc 6: NaCl 400 mg/mL (control).
The next assay deals with Pseudomona aeruginosa. To be noted: disc 6: NaCl 400 mg/mL (control).
A further assay has as its system Neisseria gonorrhoeae. Conditions: disc 6: NaCl 400 mg/mL (control).
A further assay relates to Streptococcus pyogenes. To be noted: disc 6: NaCl 400 mg/mL (control).
The subject of a further assay is Streptococcus pneumoniae. Conditions: disc 6: NaCl 400 mg/mL (control).
Another assay has as its system Neisseria meningitides. Conditions: disc 6: NaCl 400 mg/mL (control).
The test system of another assay is Proteus vulgaris. To be noted: disc 6: NaCl 400 mg/mL (control).
Another assay concerns Salmonella tifi. The format is cell-based. To be noted: disc 6: NaCl 400 mg/mL (control).
A further assay relates to Brucella suis. The format is cell-based. To be noted: disc 6: NaCl 400 mg/mL (control).
Another assay concerns Haemophilus influenzae. Conditions: disc 6: NaCl 400 mg/mL (control).
For a further assay, the system named is Escherichia coli. Conditions: disc 6: NaCl 400 mg/mL (control).
In the next assay the test system is Rauscher MuLV. Nature of the assay: Rauscher Murine Virus (Rauscher MuLV) system in vivo, splenomegaly. To be noted: rivabirin control, dose not given; in comparison with infected animals that received no treatment.

As to `[Cl-].[Na+]` [NaCl], the inhibitory halos in the assay on Klebsiela came to 6 mm; in the assay with Streptococcus aureus it was 6 mm; with Shigella flexneri it was 6 mm; with Shigella dysenteriae it was 6 mm; in the assay with Pseudomona aeruginosa, 6 mm; with Neisseria gonorrhoeae it was 14 mm. In addition, the inhibitory halos with Streptococcus pyogenes, in the assay on Streptococcus pneumoniae, with Neisseria meningitides, in the assay on Proteus vulgaris, in the assay with Salmonella tifi and in the assay with Brucella suis was 6 mm throughout. Further, the inhibitory halos in the assay with Haemophilus influenzae and in the assay with Escherichia coli was 6 mm in each case.
As for `NC(=O)c1ncn([C@@H]2O[C@H](CO)[C@@H](O)[C@H]2O)n1` [rivabirin], the “reduction of the spleen size” value with Rauscher MuLV was determined as 74%.
